Reference: patent US20210139484A1, “DIHYDROISOQUINOLINE-2(1H)-CARBOXAMIDE AND RELATED COMPOUNDS AND THEIR USE IN TREATING MEDICAL CONDITIONS” (GOSSAMER BIO SERVICES, INC., priority 2018, published 2021)

Target: T1, human HPK1 protein (Homo sapiens, UniProt Q92918)
T1 construct: recombinant human HPK1 protein (a.a. 1-346) was expressed in Sf9 insect cells; GST (N); purchased Signalchem M23-11G; host or cells: Sf9 insect cells (baculovirus)
T1 sequence (Q92918 1-346): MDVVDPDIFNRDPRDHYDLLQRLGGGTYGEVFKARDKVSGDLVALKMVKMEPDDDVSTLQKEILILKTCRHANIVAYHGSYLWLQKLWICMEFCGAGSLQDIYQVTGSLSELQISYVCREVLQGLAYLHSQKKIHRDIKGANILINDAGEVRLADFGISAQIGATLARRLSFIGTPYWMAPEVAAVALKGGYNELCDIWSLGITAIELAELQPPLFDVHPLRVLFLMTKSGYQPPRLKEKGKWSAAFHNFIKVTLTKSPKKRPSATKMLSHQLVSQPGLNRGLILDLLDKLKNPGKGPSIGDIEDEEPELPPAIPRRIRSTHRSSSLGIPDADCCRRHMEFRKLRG
Experiment: Human HPK1 protein TR-FRET assay
Format: biochemical
Details: 1 mM ATP, Table 20
Method in brief: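 Read-out was TR-FRET using Eu-labeled anti-phospho-CREB (Ser133) antibody, with the 665/615 nm signal ratio normalised to DMSO-only wells and fitted by a 4-parameter logistic model for IC50. Reactions held 10 nM Sf9-expressed GST-HPK1 (a.a. 1-346), 100 nM CREBtide and 1 mM ATP, run 60 minutes at room temperature, pH 7.5.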

SMILES: CC[C@@H]1CN(C(=O)Nc2ccc(CN3CCNCC3)c(C(F)(F)F)c2)Cc2cc(Oc3ccnc4[nH]c(C5(O)COC5)cc34)cnc21 [XIV-48]
- IC50: < 500 nM

SMILES: CC[C@@H]1CN(C(=O)Nc2ccc(CN3CCN(C)CC3)c(C(F)(F)F)c2)Cc2cc(Oc3ccnc4[nH]c(C5(O)COC5)cc34)cnc21 [XIV-50]
- IC50: < 500 nM

SMILES: CC[C@H]1CN(C(=O)Nc2ccc(CN3CCN(C)CC3)c(C(F)(F)F)c2)Cc2cc(Oc3ccnc4[nH]c(C5(O)COC5)cc34)cnc21 [XIV-51]
- IC50: < 500 nM

SMILES: CC[C@H]1CN(C(=O)Nc2ccc(CN3CCN(C)CC3)c(C(F)F)c2)Cc2cc(Oc3ccnc4[nH]c(C5(O)COC5)cc34)cnc21 [XIV-53]
- IC50: < 500 nM

SMILES: CCC1CN(C(=O)Nc2ccc(CN3CCN(CC)CC3)c(C(F)(F)F)c2)Cc2cc(Oc3ccnc4[nH]c(-c5cnn(C)c5)cc34)cnc21 (stereo not shown) [XIV-54]
- IC50: < 500 nM

SMILES: CC[C@H]1CN(C(=O)Nc2ccc(CN3CCNCC3)c(C(F)(F)F)c2)Cc2cc(Oc3ccnc4[nH]c(CO)cc34)cnc21 [XIV-55]
- IC50: < 500 nM

SMILES: CC[C@@H]1CN(C(=O)Nc2ccc(CN3CCN(C)CC3)c(C(F)(F)F)c2)Cc2cc(Oc3ccnc4[nH]c(CO)cc34)cnc21 [XIV-56]
- IC50: < 500 nM

SMILES: CC[C@H]1CN(C(=O)Nc2ccc(CN3CCNCC3)c(C(F)(F)F)c2)Cc2cc(Oc3ccnc4[nH]c(C5CC5)cc34)cnc21 [XIV-58]
- IC50: < 500 nM

SMILES: CC[C@H]1CN(C(=O)Nc2ccc(CN3CCN(C)CC3)c(C(F)F)c2)Cc2cc(Oc3ccnc4[nH]c(C5CC5)cc34)cnc21 [XIV-59]
- IC50: < 500 nM

SMILES: CC[C@H]1CN(C(=O)Nc2ccc(CN3CCN(CCO)CC3)c(C(F)(F)F)c2)Cc2cc(Oc3ccnc4[nH]c(C5CC5)cc34)cnc21 [XIV-60]
- IC50: < 500 nM

SMILES: CCC1CN(C(=O)Nc2ccc(CN3CCN(CC)CC3)c(C(F)(F)F)c2)Cc2cc(Oc3ccnc4[nH]c(C5=CCOCC5)cc34)cnc21 (stereo not shown) [XIV-61]
- IC50: < 500 nM

SMILES: CCC1CN(C(=O)Nc2ccc(CN3CCN(CC)CC3)c(C(F)(F)F)c2)Cc2cc(Oc3ccnc4[nH]c(C5=CCOC5)cc34)cnc21 (stereo not shown) [XIV-62]
- IC50: < 500 nM

SMILES: CCC1CN(C(=O)Nc2ccc(CN3CCN(CC)CC3)c(C(F)(F)F)c2)Cc2cc(Oc3ccnc4[nH]c(C5CCOC5)cc34)cnc21 (stereo not shown) [XIV-63]
- IC50: < 500 nM

SMILES: CC[C@@H]1CN(C(=O)Nc2ccc(CN3CCNCC3)c(C(F)(F)F)c2)Cc2cc(Oc3ccnc4[nH]c(C5CC5)cc34)cnc21 [XIV-64]
- IC50: < 500 nM

SMILES: CC[C@@H]1CN(C(=O)Nc2ccc(CN3CCN(CCO)CC3)c(C(F)(F)F)c2)Cc2cc(Oc3ccnc4[nH]c(C5CC5)cc34)cnc21 [XIV-65]
- IC50: < 500 nM

SMILES: CC[C@@H]1CN(C(=O)Nc2cnc(O[C@H]3CCN(C)C3)c(C(F)(F)F)c2)Cc2cc(Oc3ccnc4[nH]c(C)cc34)cnc21 [XIV-67]
- IC50: > 10000 nM

SMILES: CC[C@@H]1CN(C(=O)Nc2cnc(O[C@@H]3CCN[C@H](C)C3)c(C(F)(F)F)c2)Cc2cc(Oc3ccnc4[nH]c(C)cc34)cnc21 [XIV-69]
- IC50: < 500 nM

SMILES: CCC1CN(C(=O)Nc2ccc(CN3CCN(CC)CC3)c(C(F)(F)F)c2)Cc2cc(Oc3ccnc4[nH]c(C5CCOCC5)cc34)cnc21 (stereo not shown) [XIV-70]
- IC50: < 500 nM

SMILES: CC[C@@H]1CN(C(=O)Nc2cnc(O[C@H]3CCN[C@@H](C)C3)c(C(F)(F)F)c2)Cc2cc(Oc3ccnc4[nH]c(C)cc34)cnc21 [XIV-71]
- IC50: 500 to 5000 nM

SMILES: CC[C@H]1CN(C(=O)Nc2ccc(CN3CCN(C)CC3)c(C(F)(F)F)c2)Cc2cc(Oc3ccnc4[nH]c(C5CC5)cc34)cnc21 [XIV-72]
- IC50: < 500 nM

SMILES: CC[C@@H]1CN(C(=O)Nc2ccc(CN3CCN(C)CC3)c(C(F)(F)F)c2)Cc2cc(Oc3ccnc4[nH]c(C5CC5)cc34)cnc21 [XIV-73]
- IC50: < 500 nM

SMILES: C[C@@H]1CN(C(=O)Nc2ccc(CN3CCN(C)CC3)c(C(F)(F)F)c2)Cc2cc(Oc3ccnc4[nH]c(CO)cc34)cnc21 [XIV-75]
- IC50: < 500 nM

SMILES: CC[C@@H]1CN(C(=O)Nc2ccc(CN3CCN(CC)CC3)c(C(F)(F)F)c2)Cc2cc(Oc3ccnc4[nH]c(C5(O)CC5)cc34)cnc21 [XIV-76]
- IC50: < 500 nM

SMILES: CC[C@@H]1CN(C(=O)Nc2cnc(OC3CCN(C)CC3)c(C(F)(F)F)c2)Cc2cc(Oc3ccnc4[nH]c(C5(O)CC5)cc34)cnc21 [XIV-77]
- IC50: < 500 nM

SMILES: C[C@H]1CN(C(=O)Nc2ccc(CN3CCN(C)CC3)c(C(F)(F)F)c2)Cc2cc(Oc3ccnc4[nH]c(CO)cc34)cnc21 [XIV-78]
- IC50: < 500 nM

SMILES: CC[C@H]1CN(C(=O)Nc2ccc(CN3CCN(CC)CC3)c(C(F)(F)F)c2)Cc2cc(Oc3ccnc4[nH]c(C5(O)CC5)cc34)cnc21 [XIV-79]
- IC50: < 500 nM

SMILES: C[C@H]1CN(C(=O)Nc2ccc(CN3CCN(C)CC3)c(C(F)(F)F)c2)Cc2cc(Oc3ccnc4[nH]c(C5CC5)cc34)cnc21 [XIV-81]
- IC50: < 500 nM

SMILES: CC[C@H]1CN(C(=O)Nc2ccc(CN3CCN(C)CC3)c(C(F)(F)F)c2)Cc2cc(Oc3ccnc4[nH]c(C(N)=O)cc34)cnc21 [XIV-84]
- IC50: < 500 nM

SMILES: CC[C@H]1CN(C(=O)Nc2ccc(CN3CCN(C)CC3)c(C(F)(F)F)c2)Cc2cc(Oc3ccnc4[nH]c(C(=O)NC)cc34)cnc21 [XIV-85]
- IC50: < 500 nM

SMILES: C[C@H]1CN(C(=O)Nc2ccc(CN3CCN(C)CC3)c(C(F)(F)F)c2)Cc2cc(Oc3ccnc4[nH]c(C(N)=O)cc34)cnc21 [XIV-86]
- IC50: < 500 nM

SMILES: CCC1CN(C(=O)Nc2ccc(CN3CCN(CC)CC3)c(C(F)(F)F)c2)Cc2cc(Oc3cc(NC(=O)OC)ncc3F)cnc21 (stereo not shown) [XIV-87]
- IC50: < 500 nM

SMILES: C[C@H]1CN(C(=O)Nc2ccc(CN3CCN(C)CC3)c(C(F)(F)F)c2)Cc2cc(Oc3c(F)cnc4[nH]c(C5(O)COC5)cc34)cnc21 [XIV-88]
- IC50: < 500 nM

SMILES: Cc1cc2c(Oc3cnc4c(c3)CN(C(=O)Nc3ccc(CN5CCN(C)CC5)c(OC(F)(F)F)c3)C[C@H]4C)ccnc2[nH]1 [XIV-89]
- IC50: < 500 nM

SMILES: Cc1cc2c(Oc3cnc4c(c3)CN(C(=O)Nc3ccc(CN5CCN(C)CC5)c(C(F)(F)F)c3)C[C@@H]4C)ccnc2[nH]1 [XIV-90]
- IC50: < 500 nM

SMILES: Cc1cc2c(Oc3cnc4c(c3)CN(C(=O)Nc3ccc(CN5CCN(C)CC5)c(C(F)(F)F)c3)C[C@H]4C)ccnc2[nH]1 [XIV-91]
- IC50: < 500 nM

SMILES: CCC1CN(C(=O)Nc2ccc(CN3CCN(CC)CC3)c(C(F)(F)F)c2)Cc2cc(Oc3cc(NC(=O)c4cnn(C)c4)ncc3F)cnc21 (stereo not shown) [XIV-92]
- IC50: < 500 nM

SMILES: Cc1cc2c(Oc3cnc4c(c3)CN(C(=O)Nc3ccc(CN5CCN(C)CC5)c(OC(F)F)c3)C[C@H]4C)ccnc2[nH]1 [XIV-93]
- IC50: < 500 nM

SMILES: Cc1cc2c(Oc3cnc4c(c3)CN(C(=O)Nc3ccc(CN5CCNC6(CC6)C5)c(C(F)(F)F)c3)C[C@H]4C)ccnc2[nH]1 [XIV-94]
- IC50: < 500 nM

SMILES: CCN1CCN(Cc2ccc(NC(=O)N3Cc4cc(Oc5c(F)cnc6[nH]c(CO)cc56)cnc4[C@@H](C)C3)cc2C(F)(F)F)CC1 [XIV-95]
- IC50: < 500 nM

SMILES: C[C@H]1CN(C(=O)Nc2ccc(CN3CCN(C)CC3)c(C(F)(F)F)c2)Cc2cc(Oc3ccnc4[nH]c(C5(O)CC5)cc34)cnc21 [XIV-97]
- IC50: < 500 nM

SMILES: Cc1cc2c(Oc3cnc4c(c3)CN(C(=O)Nc3ccc(CN5C[C@H]6C[C@@H]5CN6C)c(C(F)(F)F)c3)C[C@H]4C)ccnc2[nH]1 [XIV-99]
- IC50: 500 to 5000 nM

SMILES: Cc1cc2c(Oc3cnc4c(c3)CN(C(=O)Nc3ccc(CN5CC6CCC(C5)N6)c(C(F)(F)F)c3)C[C@H]4C)ccnc2[nH]1 [XIV-101]
- IC50: 500 to 5000 nM

SMILES: CC[C@H]1CN(C(=O)Nc2ccc(CN3CCN(C)CC3)c(C(F)(F)F)c2)Cc2cc(Oc3ccnc4[nH]c(C(=O)N5CCCC5)cc34)cnc21 [XIV-102]
- IC50: < 500 nM

SMILES: CC[C@H]1CN(C(=O)Nc2ccc(CN3CCN(C)CC3)c(C(F)(F)F)c2)Cc2cc(Oc3ccnc4[nH]c(C(=O)N(C)CCO)cc34)cnc21 [XIV-105]
- IC50: < 500 nM

SMILES: CC[C@H]1CN(C(=O)Nc2ccc(CN3CCN(C)CC3)c(C(F)(F)F)c2)Cc2cc(Oc3ccnc4[nH]c(C(=O)NCCCO)cc34)cnc21 [XIV-108]
- IC50: < 500 nM

SMILES: CC[C@H]1CN(C(=O)Nc2ccc(CN3CCN(C)CC3)c(C(F)(F)F)c2)Cc2cc(Oc3ccnc4[nH]c(C(=O)N5CC[C@H](O)C5)cc34)cnc21 [XIV-109]
- IC50: < 500 nM

SMILES: CC[C@H]1CN(C(=O)Nc2ccc(CN3CCN(C)CC3)c(C(F)(F)F)c2)Cc2cc(Oc3ccnc4[nH]c(C(=O)N(C)CCCO)cc34)cnc21 [XIV-111]
- IC50: < 500 nM

SMILES: CC[C@H]1CN(C(=O)Nc2ccc(CN3CCN(C)CC3)c(C(F)(F)F)c2)Cc2cc(Oc3ccnc4[nH]c(-c5nnc(C)o5)cc34)cnc21 [XIV-112]
- IC50: < 500 nM

SMILES: CC[C@H]1CN(C(=O)Nc2ccc(CN3CCNCC3)c(C(F)(F)F)c2)Cc2cc(Oc3ccnc4[nH]c(-c5nnc(C)o5)cc34)cnc21 [XIV-113]
- IC50: < 500 nM

SMILES: CC[C@H]1CN(C(=O)Nc2ccc(CN3CCN(C)CC3)c(C(F)(F)F)c2)Cc2cc(Oc3ccnc4[nH]c(-c5n[nH]c(=O)o5)cc34)cnc21 [XIV-114]
- IC50: < 500 nM

SMILES: CC[C@@H]1CN(C(=O)Nc2ccc(CN3CCN(C)CC3)c(C(F)(F)F)c2)Cc2cc(Oc3ccnn4cc(C(=O)N(C)C)nc34)cnc21 [XIV-115]
- IC50: 5000 to 10000 nM

SMILES: CC[C@@H]1CN(C(=O)Nc2ccc(CN3CCNCC3)c(C(F)(F)F)c2)Cc2cc(Oc3ccnn4cc(C(=O)N(C)C)nc34)cnc21 [XIV-116]
- IC50: 5000 to 10000 nM

SMILES: CC[C@H]1CN(C(=O)Nc2ccc(CN3CCN(C)CC3)c(C(F)(F)F)c2)Cc2cc(Oc3ccnn4cc(C(=O)NC)nc34)cnc21 [XIV-120]
- IC50: 500 to 5000 nM

SMILES: CC[C@H]1CN(C(=O)Nc2ccc(CN3CCN(C)CC3)c(C(F)(F)F)c2)Cc2cc(Oc3ncnc4[nH]c(C(=O)NC)cc34)cnc21 [XIV-121]
- IC50: < 500 nM

SMILES: CC[C@H]1CN(C(=O)Nc2ccc(CN3CCNCC3)c(C(F)(F)F)c2)Cc2cc(Oc3ccnn4cc(C(=O)N(C)C)cc34)cnc21 [XIV-124]
- IC50: < 500 nM
